# Measurements from patent US20040009599A1, “Antisense modulation of cellular inhibitor of apoptosis-1 expression” (priority 1998, published 2004).
# Strand notation (5' to 3'): a small letter for the sugar, then the base; units joined by * are phosphorothioate-linked, units joined directly phosphodiester-linked; [ ] holds rarer units or linkages, { } end groups; capitals alone tell only the bases. d = 2'-deoxy (DNA)
# Test system: human Cellular Inhibitor of Apoptosis-1 RNA
# Assay: Inhibition of Cellular Inhibitor of Apoptosis-1 mRNA levels by quantitative real-time PCR after oligonucleotide treatment of cells
# Assay type: cell-based
# Conditions: phosphorothioate oligodeoxynucleotides; oligonucleotide at final concentration of 150 nM with LIPOFECTIN; real-time PCR; averages from three experiments
# Description: Cells were harvested 16 hours after oligonucleotide treatment.
# Poly(A)+ mRNA was isolated according to Miura et al., Clin. Chem., 1996, 42, 1758-1764. Other methods for poly(A)+ mRNA isolation are taught in, for example, Ausubel, F. M. et al., Current Protocols in Molecular Biology, Volume 1, pp. 4.5.1-4.5.3, John Wiley & Sons, Inc., 1993. […] 60 μL lysis buffer (10 mM Tris-HCl, pH 7.6, 1 mM EDTA, 0.5 M NaCl, 0.5% NP-40, 20 mM vanadyl-ribonucleoside complex) was added to each well, the plate was gently agitated and then incubated at room temperature for five minutes. 55 μL of lysate was transferred to Oligo d(T) coated 96-well plates (AGCT Inc., Irvine Calif.). Plates were incubated for 60 minutes at room temperature, washed 3 times with 200 μL of wash buffer (10 mM Tris-HCl pH 7.6, 1 mM EDTA, 0.3 M NaCl). After the final wash, the plate was blotted on paper towels to remove excess wash buffer and then air-dried for 5 minutes. 60 μL of elution buffer (5 mM Tris-HCl pH 7.6), preheated to 70° C. was added to each well, the plate was incubated on a 90° C. hot plate for 5 minutes, and the eluate was then transferred to a fresh 96-well plate.
# Cellular Inhibitor of Apoptosis-1 probes and primers were designed to hybridize to the human Cellular Inhibitor of Apoptosis-1 sequence, using published sequence information (GenBank accession number U37547, incorporated herein as SEQ ID NO:1).
# For Cellular Inhibitor of Apoptosis-1 the PCR primers were: […]
# Target sites are indicated by nucleotide numbers, as given in the sequence source reference (Genbank accession no. U37547), to which the oligonucleotide binds. All compounds in Table 1 are oligodeoxynucleotides with phosphorothioate backbones (internucleoside linkages) throughout. […] Data are averages from three experiments. If present, “N.D.” indicates “no data”.
row,Substance,% Inhibition of Cellular Inhibitor of Apoptosis-1 mRNA levels [%]
1,"ISIS 23368: phosphorothioate oligodeoxynucleotide ttagatggcttcaagtgt, 3′ UTR target site 3071 (antisense dT*dT*dA*dG*dA*dT*dG*dG*dC*dT*dT*dC*dA*dA*dG*dT*dG*dT)",10
2,"ISIS 23362: phosphorothioate oligodeoxynucleotide ataattggtgggtcagca, Coding target site 2269 (antisense dA*dT*dA*dA*dT*dT*dG*dG*dT*dG*dG*dG*dT*dC*dA*dG*dC*dA)",0
3,"ISIS 23345: phosphorothioate oligodeoxynucleotide aggtggatgcacttctga, 5′ UTR target site 858 (antisense dA*dG*dG*dT*dG*dG*dA*dT*dG*dC*dA*dC*dT*dT*dC*dT*dG*dA)",0
4,"ISIS 23343: phosphorothioate oligodeoxynucleotide ataacagaccaattactg, 5′ UTR target site 724 (antisense dA*dT*dA*dA*dC*dA*dG*dA*dC*dC*dA*dA*dT*dT*dA*dC*dT*dG)",0
5,"ISIS 23360: phosphorothioate oligodeoxynucleotide ttcccaacacctcaagcc, Coding target site 2093 (antisense dT*dT*dC*dC*dC*dA*dA*dC*dA*dC*dC*dT*dC*dA*dA*dG*dC*dC)",55
6,"ISIS 23347: phosphorothioate oligodeoxynucleotide tcaggtaggatgagtatc, 5′ UTR target site 994 (antisense dT*dC*dA*dG*dG*dT*dA*dG*dG*dA*dT*dG*dA*dG*dT*dA*dT*dC)",11
7,"ISIS 23334: phosphorothioate oligodeoxynucleotide ctagtgttatcagaaacg, 5′ UTR target site 139 (antisense dC*dT*dA*dG*dT*dG*dT*dT*dA*dT*dC*dA*dG*dA*dA*dA*dC*dG)",0
8,"ISIS 23340: phosphorothioate oligodeoxynucleotide aaaagctaagttcacaca, 5′ UTR target site 576 (antisense dA*dA*dA*dA*dG*dC*dT*dA*dA*dG*dT*dT*dC*dA*dC*dA*dC*dA)",0
9,"ISIS 23354: phosphorothioate oligodeoxynucleotide ccaaggtgggagataatg, Coding target site 1572 (antisense dC*dC*dA*dA*dG*dG*dT*dG*dG*dG*dA*dG*dA*dT*dA*dA*dT*dG)",3
10,"ISIS 23348: phosphorothioate oligodeoxynucleotide tttcttcacatgaactaa, 5′ UTR target site 1097 (antisense dT*dT*dT*dC*dT*dT*dC*dA*dC*dA*dT*dG*dA*dA*dC*dT*dA*dA)",0
11,"ISIS 23367: phosphorothioate oligodeoxynucleotide gaccacaaggaataaata, Coding target site 2904 (antisense dG*dA*dC*dC*dA*dC*dA*dA*dG*dG*dA*dA*dT*dA*dA*dA*dT*dA)",0
12,"ISIS 23359: phosphorothioate oligodeoxynucleotide ctcagatttgaaatgcta, Coding target site 1936 (antisense dC*dT*dC*dA*dG*dA*dT*dT*dT*dG*dA*dA*dA*dT*dG*dC*dT*dA)",0
13,"ISIS 23335: phosphorothioate oligodeoxynucleotide ttaaggactattcagcta, 5′ UTR target site 216 (antisense dT*dT*dA*dA*dG*dG*dA*dC*dT*dA*dT*dT*dC*dA*dG*dC*dT*dA)",0
14,"ISIS 23364: phosphorothioate oligodeoxynucleotide catttcttcagcttgttt, Coding target site 2501 (antisense dC*dA*dT*dT*dT*dC*dT*dT*dC*dA*dG*dC*dT*dT*dG*dT*dT*dT)",0
15,"ISIS 23356: phosphorothioate oligodeoxynucleotide tagaattaagagggtttg, Coding target site 1632 (antisense dT*dA*dG*dA*dA*dT*dT*dA*dA*dG*dA*dG*dG*dG*dT*dT*dT*dG)",0
16,"ISIS 23352: phosphorothioate oligodeoxynucleotide ccagattctgaataaagc, Coding target site 1491 (antisense dC*dC*dA*dG*dA*dT*dT*dC*dT*dG*dA*dA*dT*dA*dA*dA*dG*dC)",0
17,"ISIS 23366: phosphorothioate oligodeoxynucleotide attcttatccacaaataa, Coding target site 2774 (antisense dA*dT*dT*dC*dT*dT*dA*dT*dC*dC*dA*dC*dA*dA*dA*dT*dA*dA)",0
18,"ISIS 23371: phosphorothioate oligodeoxynucleotide agtgaaaagcaccaaaga, 3′ UTR target site 3407 (antisense dA*dG*dT*dG*dA*dA*dA*dA*dG*dC*dA*dC*dC*dA*dA*dA*dG*dA)",0
19,"ISIS 23336: phosphorothioate oligodeoxynucleotide ttagttagccataaaatt, 5′ UTR target site 287 (antisense dT*dT*dA*dG*dT*dT*dA*dG*dC*dC*dA*dT*dA*dA*dA*dA*dT*dT)",0
20,"ISIS 23344: phosphorothioate oligodeoxynucleotide tgccttttatttatattt, 5′ UTR target site 764 (antisense dT*dG*dC*dC*dT*dT*dT*dT*dA*dT*dT*dT*dA*dT*dA*dT*dT*dT)",0
21,"ISIS 23338: phosphorothioate oligodeoxynucleotide ttggcttaaagttcaaaa, 5′ UTR target site 435 (antisense dT*dT*dG*dG*dC*dT*dT*dA*dA*dA*dG*dT*dT*dC*dA*dA*dA*dA)",0
22,"ISIS 23355: phosphorothioate oligodeoxynucleotide gagtaagaaccactgaac, Coding target site 1603 (antisense dG*dA*dG*dT*dA*dA*dG*dA*dA*dC*dC*dA*dC*dT*dG*dA*dA*dC)",0
23,"ISIS 23346: phosphorothioate oligodeoxynucleotide ggtaacctaagtgctatt, 5′ UTR target site 915 (antisense dG*dG*dT*dA*dA*dC*dC*dT*dA*dA*dG*dT*dG*dC*dT*dA*dT*dT)",0
24,"ISIS 23370: phosphorothioate oligodeoxynucleotide ttcctggtttccagttct, 3′ UTR target site 3355 (antisense dT*dT*dC*dC*dT*dG*dG*dT*dT*dT*dC*dC*dA*dG*dT*dT*dC*dT)",46
25,"ISIS 23342: phosphorothioate oligodeoxynucleotide tatatgcaggcttctttc, 5′ UTR target site 684 (antisense dT*dA*dT*dA*dT*dG*dC*dA*dG*dG*dC*dT*dT*dC*dT*dT*dT*dC)",23
26,"ISIS 23349: phosphorothioate oligodeoxynucleotide acctgggaaaagtctttg, Coding target site 1178 (antisense dA*dC*dC*dT*dG*dG*dG*dA*dA*dA*dA*dG*dT*dC*dT*dT*dT*dG)",0
27,"ISIS 23365: phosphorothioate oligodeoxynucleotide tcgcttgtaaaggtatct, Coding target site 2661 (antisense dT*dC*dG*dC*dT*dT*dG*dT*dA*dA*dA*dG*dG*dT*dA*dT*dC*dT)",0
28,"ISIS 23333: phosphorothioate oligodeoxynucleotide aatcaactctactagcct, 5′ UTR target site 68 (antisense dA*dA*dT*dC*dA*dA*dC*dT*dC*dT*dA*dC*dT*dA*dG*dC*dC*dT)",47

# Same assay, conditions: summary of Table 1; real-time PCR of mRNA levels
row,Substance,inhibition of Cellular Inhibitor of Apoptosis-1 expression
1,"ISIS 23360: phosphorothioate oligodeoxynucleotide ttcccaacacctcaagcc, Coding target site 2093 (antisense dT*dT*dC*dC*dC*dA*dA*dC*dA*dC*dC*dT*dC*dA*dA*dG*dC*dC)",at least 20%
2,"ISIS 23370: phosphorothioate oligodeoxynucleotide ttcctggtttccagttct, 3′ UTR target site 3355 (antisense dT*dT*dC*dC*dT*dG*dG*dT*dT*dT*dC*dC*dA*dG*dT*dT*dC*dT)",at least 20%
3,"ISIS 23342: phosphorothioate oligodeoxynucleotide tatatgcaggcttctttc, 5′ UTR target site 684 (antisense dT*dA*dT*dA*dT*dG*dC*dA*dG*dG*dC*dT*dT*dC*dT*dT*dT*dC)",at least 20%
4,"ISIS 23333: phosphorothioate oligodeoxynucleotide aatcaactctactagcct, 5′ UTR target site 68 (antisense dA*dA*dT*dC*dA*dA*dC*dT*dC*dT*dA*dC*dT*dA*dG*dC*dC*dT)",at least 20%
